{"source": "patent US6525001B1", "about": "“Substituted pyrimidine and pyridine herbicides” (Mid-American Commercialization Corporation, priority 1997, dated 2003)", "assay_type_in_all_cases": "in vivo", "key": {"[1]": {"tested_on": "eastern black nightshade (Solanum ptycanthum)", "assay": "Test C", "conditions": "PREEMERGENCE"}, "[2]": {"tested_on": "lambsquarters (Chenopodium album)", "assay": "Test C", "design": "key: 0 was no effect; 100 was complete control", "conditions": "PREEMERGENCE"}, "[3]": {"tested_on": "barnyardgrass (Echinochloa crus-galli)", "assay": "Test C", "design": "key: 0 was no effect; 100 was complete control", "conditions": "PREEMERGENCE"}, "[4]": {"tested_on": "arrowleaf sida (Sida rhombifolia)", "assay": "Test C", "design": "key: 0 was no effect; 100 was complete control", "conditions": "PREEMERGENCE"}, "[5]": {"tested_on": "large crabgrass (Digitaria sanguinalis)", "assay": "Test C", "design": "key: 0 was no effect; 100 was complete control", "conditions": "PREEMERGENCE"}, "[6]": {"tested_on": "large crabgrass (Digitaria sanguinalis)", "assay": "Test E pre-/postemergence/post directed", "conditions": "POSTEMERGENCE, Rate 250 g/ha", "summary_of_the_method": "(§1)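 Three application modes in greenhouse pots: preemergence soil spray, postemergence foliar spray at two to four leaves, and post-directed spray to soil and plant base. Ratings of 0–100 injury, assigned visually against untreated controls 13 to 21 days later.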"}, "[7]": {"tested_on": "alexandergrass (Brachiaria plantaginea)", "assay": "Test E pre-/postemergence/post directed", "summary_of_the_method": "as §1"}, "[8]": {"tested_on": "itchgrass (Rottboellia exaltata)", "assay": "Test E pre-/postemergence/post directed", "summary_of_the_method": "as §1"}, "[9]": {"tested_on": "sandbur (Cenchrus echinatus)", "assay": "Test E pre-/postemergence/post directed", "summary_of_the_method": "as §1"}, "[10]": {"tested_on": "common ragweed (Ambrosia elatior)", "assay": "Test E pre-/postemergence/post directed", "summary_of_the_method": "as §1"}, "[11]": {"tested_on": "surinam grass (Brachiaria decumbens)", "assay": "Test E pre-/postemergence/post directed", "summary_of_the_method": "as §1"}, "[12]": {"tested_on": "johnson grass (Sorghum halepense)", "assay": "Test E pre-/postemergence/post directed", "summary_of_the_method": "as §1"}, "[13]": {"tested_on": "pitted morningglory (Ipomoea lacunosa)", "assay": "Test E pre-/postemergence/post directed", "summary_of_the_method": "as §1"}, "[14]": {"tested_on": "bermudagrass (Cynodon dactylon)", "assay": "Test E pre-/postemergence/post directed", "conditions": "POSTEMERGENCE, Rate 250 g/ha", "summary_of_the_method": "as §1"}, "[15]": {"tested_on": "common groundsel (Senecio vulgaris)", "assay": "Test E pre-/postemergence/post directed", "summary_of_the_method": "as §1"}, "[16]": {"tested_on": "Spanishneedles (Bidens bipinnata)", "assay": "Test E pre-/postemergence/post directed", "summary_of_the_method": "as §1"}, "[17]": {"tested_on": "purple nutsedge (Cyperus rotundus)", "assay": "Test E pre-/postemergence/post directed", "design": "key: 0 is no injury; 100 is complete control", "summary_of_the_method": "as §1"}, "[18]": {"tested_on": "fall panicum (Panicum dichotomiflorum)", "assay": "Test C", "conditions": "PREEMERGENCE"}, "[19]": {"tested_on": "redroot pigweed (Amaranthus retroflexus)", "assay": "Test C", "design": "key: 0 was no effect; 100 was complete control", "conditions": "PREEMERGENCE"}, "[20]": {"tested_on": "ivyleaf morningglory (Ipomoea hederacea)", "assay": "Test C", "conditions": "PREEMERGENCE"}, "[21]": {"tested_on": "wild poinsettia (Euphorbia heterophylla)", "assay": "Test C", "design": "key: 0 was no effect; 100 was complete control", "conditions": "PREEMERGENCE"}}}
{"molecule": "Cc1cnc(-c2ccc(C(F)(F)F)cc2)nc1Cc1cccc(C(F)(F)F)c1", "note": "[Example 1, 5-methyl-2-[4-(trifluoromethyl)phenyl]-4-[[3-(trifluoromethyl)phenyl]methyl]pyrimidine]", "values": [{"measurement": "Plant response rating, E. blacknightsh", "setting": "[1]; Rate 35 g/ha", "value": 90}, {"measurement": "Plant response rating, E. blacknightsh", "setting": "[1]; Rate 70 g/ha", "value": 90}, {"measurement": "Plant response rating, E. blacknightsh", "setting": "[1]; Rate 140 g/ha", "value": 95}, {"measurement": "Plant response rating, Lambsquarters", "setting": "[2]; Rate 35 g/ha", "value": 100}, {"measurement": "Plant response rating, Lambsquarters", "setting": "[2]; Rate 70 g/ha", "value": 100}, {"measurement": "Plant response rating, Lambsquarters", "setting": "[2]; Rate 140 g/ha", "value": 100}, {"measurement": "Plant response rating, Barnyardgrass", "setting": "[3]; Rate 35 g/ha", "value": 20}, {"measurement": "Plant response rating, Barnyardgrass", "setting": "[3]; Rate 70 g/ha", "value": 75}, {"measurement": "Plant response rating, Barnyardgrass", "setting": "[3]; Rate 140 g/ha", "value": 100}, {"measurement": "Plant response rating, Arrowleaf sida", "setting": "[4]; Rate 35 g/ha", "value": 85}, {"measurement": "Plant response rating, Arrowleaf sida", "setting": "[4]; Rate 70 g/ha", "value": 95}, {"measurement": "Plant response rating, Arrowleaf sida", "setting": "[4]; Rate 140 g/ha", "value": 100}, {"measurement": "Plant response rating, Large crabgrass", "setting": "[5]; Rate 35 g/ha", "value": 100}, {"measurement": "Plant response rating, Large crabgrass", "setting": "[5]; Rate 70 g/ha", "value": 100}, {"measurement": "Plant response rating, Large crabgrass", "setting": "[5]; Rate 140 g/ha", "value": 100}, {"measurement": "Plant response rating, Large crabgrass", "setting": "[6]", "value": 85}, {"measurement": "Plant response rating, Alexandergrass", "setting": "[7]; POSTEMERGENCE, Rate 250 g/ha", "value": 90}, {"measurement": "Plant response rating, Alexandergrass", "setting": "[7]; PREEMERGENCE, Rate 32 g/ha", "value": 10}, {"measurement": "Plant response rating, Alexandergrass", "setting": "[7]; PREEMERGENCE, Rate 64 g/ha", "value": 75}, {"measurement": "Plant response rating, Alexandergrass", "setting": "[7]; PREEMERGENCE, Rate 125 g/ha", "value": 90}, {"measurement": "Plant response rating, Itchgrass", "setting": "[8]; POSTEMERGENCE, Rate 250 g/ha", "value": 85}, {"measurement": "Plant response rating, Itchgrass", "setting": "[8]; PREEMERGENCE, Rate 32 g/ha", "value": 20}, {"measurement": "Plant response rating, Itchgrass", "setting": "[8]; PREEMERGENCE, Rate 64 g/ha", "value": 20}, {"measurement": "Plant response rating, Itchgrass", "setting": "[8]; PREEMERGENCE, Rate 125 g/ha", "value": 50}, {"measurement": "Plant response rating, Itchgrass", "setting": "[8]; PREEMERGENCE, Rate 250 g/ha", "value": 95}, {"measurement": "Plant response rating, Sandbur", "setting": "[9]; POSTEMERGENCE, Rate 250 g/ha", "value": 10}, {"measurement": "Plant response rating, Sandbur", "setting": "[9]; PREEMERGENCE, Rate 32 g/ha", "value": 20}, {"measurement": "Plant response rating, Sandbur", "setting": "[9]; PREEMERGENCE, Rate 64 g/ha", "value": 65}, {"measurement": "Plant response rating, Sandbur", "setting": "[9]; PREEMERGENCE, Rate 125 g/ha", "value": 95}, {"measurement": "Plant response rating, Com. ragweed", "setting": "[10]; POSTEMERGENCE, Rate 250 g/ha", "value": 70}, {"measurement": "Plant response rating, Com. ragweed", "setting": "[10]; PREEMERGENCE, Rate 32 g/ha", "value": 90}, {"measurement": "Plant response rating, Surinam grass", "setting": "[11]; POSTEMERGENCE, Rate 250 g/ha", "value": 30}, {"measurement": "Plant response rating, Surinam grass", "setting": "[11]; PREEMERGENCE, Rate 32 g/ha", "value": 65}, {"measurement": "Plant response rating, Surinam grass", "setting": "[11]; PREEMERGENCE, Rate 64 g/ha", "value": 35}, {"measurement": "Plant response rating, Surinam grass", "setting": "[11]; PREEMERGENCE, Rate 125 g/ha", "value": 98}, {"measurement": "Plant response rating, Johnsongrass", "setting": "[12]; POSTEMERGENCE, Rate 250 g/ha", "value": 90}, {"measurement": "Plant response rating, Johnsongrass", "setting": "[12]; PREEMERGENCE, Rate 32 g/ha", "value": 5}, {"measurement": "Plant response rating, Johnsongrass", "setting": "[12]; PREEMERGENCE, Rate 64 g/ha", "value": 40}, {"measurement": "Plant response rating, Johnsongrass", "setting": "[12]; PREEMERGENCE, Rate 125 g/ha", "value": 90}, {"measurement": "Plant response rating, P. morninglory", "setting": "[13]; POSTEMERGENCE, Rate 250 g/ha", "value": 80}, {"measurement": "Plant response rating, P. morninglory", "setting": "[13]; PREEMERGENCE, Rate 32 g/ha", "value": 70}, {"measurement": "Plant response rating, P. morninglory", "setting": "[13]; PREEMERGENCE, Rate 64 g/ha", "value": 80}, {"measurement": "Plant response rating, Bermudagrass", "setting": "[14]", "value": 30}, {"measurement": "Plant response rating, Com. groundsel", "setting": "[15]; POSTEMERGENCE, Rate 250 g/ha", "value": 75}, {"measurement": "Plant response rating, Com. groundsel", "setting": "[15]; PREEMERGENCE, Rate 32 g/ha", "value": 98}, {"measurement": "Plant response rating, Spanishneedles", "setting": "[16]; POSTEMERGENCE, Rate 250 g/ha", "value": 10}, {"measurement": "Plant response rating, Spanishneedles", "setting": "[16]; PREEMERGENCE, Rate 32 g/ha", "value": 40}, {"measurement": "Plant response rating, Spanishneedles", "setting": "[16]; PREEMERGENCE, Rate 64 g/ha", "value": 80}, {"measurement": "Plant response rating, Spanishneedles", "setting": "[16]; PREEMERGENCE, Rate 125 g/ha", "value": 90}, {"measurement": "Plant response rating, Purple nutsedge", "setting": "[17]; POSTEMERGENCE, Rate 250 g/ha", "value": 0}, {"measurement": "Plant response rating, Purple nutsedge", "setting": "[17]; PREEMERGENCE, Rate 32 g/ha", "value": 0}, {"measurement": "Plant response rating, Purple nutsedge", "setting": "[17]; PREEMERGENCE, Rate 64 g/ha", "value": 0}, {"measurement": "Plant response rating, Purple nutsedge", "setting": "[17]; PREEMERGENCE, Rate 125 g/ha", "value": 0}, {"measurement": "Plant response rating, Purple nutsedge", "setting": "[17]; PREEMERGENCE, Rate 250 g/ha", "value": 50}, {"measurement": "Plant response rating, Fall panicum", "setting": "[18]; Rate 35 g/ha", "value": 90}, {"measurement": "Plant response rating, Fall panicum", "setting": "[18]; Rate 70 g/ha", "value": 90}, {"measurement": "Plant response rating, Fall panicum", "setting": "[18]; Rate 140 g/ha", "value": 95}, {"measurement": "Plant response rating, Redroot pigweed", "setting": "[19]; Rate 35 g/ha", "value": 100}, {"measurement": "Plant response rating, Redroot pigweed", "setting": "[19]; Rate 70 g/ha", "value": 100}, {"measurement": "Plant response rating, Redroot pigweed", "setting": "[19]; Rate 140 g/ha", "value": 100}, {"measurement": "Plant response rating, I. morningglory", "setting": "[20]; Rate 35 g/ha", "value": 15}, {"measurement": "Plant response rating, I. morningglory", "setting": "[20]; Rate 70 g/ha", "value": 15}, {"measurement": "Plant response rating, I. morningglory", "setting": "[20]; Rate 140 g/ha", "value": 20}, {"measurement": "Plant response rating, Wild poinsettia", "setting": "[21]; Rate 35 g/ha", "value": 0}, {"measurement": "Plant response rating, Wild poinsettia", "setting": "[21]; Rate 70 g/ha", "value": 10}, {"measurement": "Plant response rating, Wild poinsettia", "setting": "[21]; Rate 140 g/ha", "value": 50}]}
